{
  "source": "patent US11709165B2",
  "about": "“Examination method for prediction of effect of treatment of cancer based on detection of cancer/testis antibodies” (KAWASAKI GAKUEN EDUCATIONAL FOUNDATION, priority 2017, dated 2023)",
  "key": {"[1]": {"system": "previously treated squamous-cell lung cancer", "details": "cited from earlier work; for Median survival time (MST): CheckMate-017, primary outcome; for Disease progression rate / Response rate: CheckMate-017"}, "[2]": {"system": "previously treated non-squamous non-small-cell lung cancer", "details": "cited from earlier work; for Median survival time (MST): CheckMate-057, primary outcome; for Disease progression rate / Response rate: CheckMate-057"}, "[3]": {"system": "previously treated non-small-cell lung cancer", "details": "cited from earlier work"}, "[4]": {"system": "previously treated non-small-cell lung cancer", "details": "cited from earlier work; for MST: POPLAR"}, "[5]": {"assay": "Repeated administration toxicity trial for 10 weeks into the dorsal skin", "details": "both sexes, Sprague-Dawley (Crl:CD(SD)), rat, in vivo; both males and females, 10 weeks repeated administration; read-out: No-observed-adverse-effect level", "description": "A toxicity trial was performed in which a mixture of SLP1 and SLP2 was repeatedly administered for 10 weeks (intermittently administered five times every 14 days) with an adjuvant into the dorsal skin of Sprague-Dawley rats (Crl:CD(SD), 6-week-old at the start of administration, a group of 10 males and 10 females).\nThe following two doses were adopted as the doses of the test substances: 0.2 mg/kg (SLP1: 0.2 mg/kg+SLP2: 0.2 mg/kg) and 2 mg/kg (SLP1: 2 mg/kg+SLP2: 2 mg/kg). SLP1 and SLP2 dissolved in water for injection and Picibanil were mixed with an equal amount of an oil adjuvant MONTANIDE ISA 51 VG (ISA51) to provide an emulsion, which was administered into the dorsal skin in an administration volume of 1 mL/kg. Further, a vehicle control group to be administered an emulsion of water for injection and Picibanil with ISA51 and a physiological saline control group to be administered physiological saline were formed.\nDuring the administration period, general condition observation, body weight measurement, and food intake measurement were performed, and urine examination and ophthalmologic examination were performed in week 10 of the administration. At the end of the administration period, hematological examination, blood chemical examination, an autopsy, organ weight measurement, and histopathological examination were performed."}, "[6]": {"details": "KEYNOTE-010, tumor PD-L1 expression of 1% or more"}, "[7]": {"details": "KEYNOTE-010, tumor PD-L1 expression of 50% or more"}},
  "note": "Where two headings read alike, the source gives them in different places. Where no end group is shown, it is not given here.",
  "data": [
    {"compound": "CC(=O)O[C@@]12CO[C@@H]1C[C@H](O)[C@@]1(C)C(=O)[C@H](O)C3=C(C)[C@@H](OC(=O)[C@H](O)[C@@H](NC(=O)OC(C)(C)C)c4ccccc4)C[C@@](O)([C@@H](OC(=O)c4ccccc4)[C@H]21)C3(C)C", "note": "[docetaxel]", "values": [
      {"measurement": "Median survival time (MST)", "setting": "[1]", "result": 6.0, "unit": "months"},
      {"measurement": "Disease progression rate", "setting": "[1]", "result": 30, "unit": "%"},
      {"measurement": "Response rate", "setting": "[1]", "result": 31, "unit": "%"},
      {"measurement": "Median survival time (MST)", "setting": "[2]", "result": 9.4, "unit": "months"},
      {"measurement": "Disease progression rate", "setting": "[2]", "result": 29, "unit": "%"},
      {"measurement": "Response rate", "setting": "[2]", "result": 12, "unit": "%"},
      {"measurement": "MST", "setting": "[3]; [6]", "result": 8.5, "unit": "months"},
      {"measurement": "Response rate", "setting": "[3]; [6]", "result": 9.3, "unit": "%"},
      {"measurement": "Response rate", "setting": "[3]; [7]", "result": 7.9, "unit": "%"},
      {"measurement": "MST", "setting": "[4]", "result": 9.7, "unit": "months"},
      {"measurement": "Response rate", "setting": "[4]; group expressing no PD-L1 in the cancer immune microenvironment", "result": "about 15%"}
    ]},
    {"compound": "ISQTPGINLDLGSGVKVKIIPKEEH [SLP2]", "values": [
      {"measurement": "NOAEL at 1680 h", "setting": "[5]", "result": "> 2", "unit": "mg/kg"}
    ]},
    {"compound": "NQQLKVGILHLGSRQKKIRIQLRSQ [SLP1]", "values": [
      {"measurement": "NOAEL at 1680 h", "setting": "[5]", "result": "> 2", "unit": "mg/kg"}
    ]},
    {"compound": "atezolizumab", "values": [
      {"measurement": "MST", "setting": "[4]", "result": 12.6, "unit": "months"},
      {"measurement": "Response rate", "setting": "[4]; group highly expressing PD-L1 in the cancer immune microenvironment", "result": 38, "unit": "%"}
    ]},
    {"compound": "nivolumab", "values": [
      {"measurement": "Median survival time (MST)", "setting": "[1]", "result": 9.2, "unit": "months"},
      {"measurement": "Disease progression rate", "setting": "[1]", "result": 33, "unit": "%"},
      {"measurement": "Response rate", "setting": "[1]", "result": 36, "unit": "%"},
      {"measurement": "Median survival time (MST)", "setting": "[2]", "result": 12.2, "unit": "months"},
      {"measurement": "Disease progression rate", "setting": "[2]", "result": 44, "unit": "%"},
      {"measurement": "Response rate", "setting": "[2]", "result": 19, "unit": "%"}
    ]},
    {"compound": "pembrolizumab", "values": [
      {"measurement": "Progression-free survival (PFS) as compared to docetaxel group", "setting": "[3]; [6]", "result": "No significant difference"},
      {"measurement": "PFS as compared to docetaxel group", "setting": "[3]; [7]", "result": "significantly improved"}
    ]}
  ]
}
